Data published in patent publication US9540389B2, “Antimicrobial potentiators” (priority 2013, dated 2017).
≈ marks a conversion by molar mass, not a printed value.

Assays:
[1] = test system: Escherichia coli AB1157 (WT); assay: Checkerboard MIC assay (antibacterial agent + MBX2319); assay type: cell-based; conditions: WT
Description: (§1) • Strains and Reagents. The following strains were obtained from the Keio collection (Baba, et al.: Construction of Escherichia coli K-12 in-frame, single-gene knockout mutants: the Keio collection. In Mol Syst Biol, vol. 2, pp. 2006 0008, (2006)): JW0451 (ΔacrB::kan), JW5503 (ΔtolC::kan), JW3234 (ΔacrF::kan), JW2661 (ΔemrB::kan), JW0863 (ΔmacB::kan). The deletion mutations in each of these strains were transferred to AB1157 using P1 phage transduction (see Table 1). The construction of the E. coli cell-based reporter strain (SOS-XXX) that was used for high throughput screening is described in detail in the supplementary information. […] Irgasan was a generous gift from Ciba Speciality Chemicals, Inc. (High Point, N.C.). Hoechst 33342 (H33342) was purchased from Molecular Probes (Eugene, Oreg.). […] Luria Broth (Miller) and agar were purchased as prepared dehydrated media from Becton Dickenson (Franklin Lakes, N.J.). The compound libraries used in high-throughput screens were purchased from Chembridge (San Diego, Calif.), ChemDiv (San Diego, Calif.), and TimTec (Newark, Del.). MBX2319 was synthesized by Microbiotix, Inc. • Antibacterial Activity Assays. The minimal inhibitory concentration (MIC) of antibacterial agents and biocides were determined using the microbroth dilution method essentially as described in the CLSI protocol M7-A7 (CLSI: Method for dilution antimicrobial susceptibility testing for bacteria that grow aerobically; Approved standard-document M7-A7. In Clinical and Laboratory Standards Institute document M7-A7, Clinical and Laboratory Standards Institute, Wayne, Pa., (2006)), with the following exceptions. LB media was used instead of MHB. […] The final concentration of DMSO in each assay was 2%. […] MIC assays were performed in triplicate and the geometric mean was calculated. Checkerboard MIC assays using an EPI and an antibacterial agent were performed essentially as described (Pillai, et al.: Antimicrobial Combinations. In Antibiotics in Laboratory Medicine, ed. by V. Lorian, pp. 365-440, Lippincott Williams & Wilkins, Philadelphia, Pa., (2005)), with the same modifications used for the MIC assays described above. • Time-Kill Assays. Killing curve assays were performed essentially as described (Pillai, et al.: Antimicrobial Combinations. In Antibiotics in Laboratory Medicine, ed. by V. Lorian, pp. 365-440, Lippincott Williams & Wilkins, Philadelphia, Pa., (2005)). Exponential bacterial cultures grown in LB were diluted to a cell density of ˜1×10^7 in LB followed by addition of CIP and/or an EPI. Viability was monitored over 2-4 hours by making serial dilutions in saline and spotting 5 μl of each dilution onto the surface of an LB agar plate in triplicate. Colonies were counted after the plates were incubated at 37° C. for 16-18 hr, colony forming units (CFU) per ml were calculated, and the average and standard deviation for the three replicates was determined. For treatments that decreased CFU/ml below the limit of detection for the spot plating method, the 100 μl samples were diluted into 5 ml LB top agar, were poured onto LB agar plates, and incubated for 18 hr at 37° C. To calculate the fraction of the control for each sample, the average CFU/ml values for treated samples were divided by those from the same sample at 0 h (time=0). Each experiment was repeated at least three times, and a representative experiment is shown. • H33342 Accumulation Assay. The rate of accumulation of the fluorescent dye Hoechst 33342 (H33342), which is a substrate of a wide variety of bacterial efflux pumps (van den Berg van Saparoea, et al., Biochemistry, vol. 44, pp. 16931-16938, (2005)), can be used to estimate the activity of the major efflux pumps in E. coli and many other bacterial species. The H33342 accumulation assay was used to evaluate the effect of EPIs on the activity of the AcrAB-TolC efflux pump in several bacterial species essentially as described (Coldham, et al., J Antimicrob Chemother, vol. 65, pp. 1655-1663, (2010)). […]

[2] = test system: Escherichia coli AB1157 ΔacrB; assay: as above; assay type: cell-based
Description: as §1

[3] = test system: Escherichia coli AB1157 ΔacrF; assay: as above; assay type: cell-based
Description: as §1

[4] = test system: Escherichia coli AB1157 ΔtolC; assay: as above; assay type: cell-based
Description: as §1

[5] = test system: P. aeruginosa ATCC 27853; assay: MIC assay (microbroth dilution) ± 25 μM EPI; assay type: cell-based, Pseudomonas aeruginosa
Description: as §1

[6] = test system: Escherichia coli AB1157; assay: MIC assay (microbroth dilution) ± 25 μM EPI; assay type: cell-based; conditions: E. coli AB1157 (WT); + 25 μM MBX2319; geometric mean
Description: as §1

[7] = test system: Escherichia coli 331; assay: MIC assay (microbroth dilution) ± 25 μM EPI; assay type: cell-based; conditions: E. coli 331
Description: as §1

[8] = test system: Klebsiella pneumoniae ATCC 700603; assay: MIC assay (microbroth dilution) ± 25 μM EPI; assay type: cell-based
Description: as §1

[9] = test system: Salmonella enterica ATCC 14028; assay: MIC assay (microbroth dilution) ± 25 μM EPI; assay type: cell-based
Description: as §1

[10] = test system: Shigella flexneri ATCC 12022; assay: MIC assay (microbroth dilution) ± 25 μM EPI; assay type: cell-based
Description: as §1

[11] = test system: Enterobacter aerogenes ATCC 13048; assay: MIC assay (microbroth dilution) ± 25 μM EPI; assay type: cell-based
Description: as §1

[12] = test system: Escherichia coli ATCC 25922; assay: MIC assay (microbroth dilution) ± 25 μM EPI; assay type: cell-based; conditions: E. coli ATCC 25922
Description: as §1

[13] = test system: Escherichia coli AB1157; assay: microbe, parasite or virus in culture
[14] = Escherichia coli, read-out: MIC (μg/ml) with MBX2319 at concn (μM) of: 0

C[C@H]1COc2c(N3CCN(C)CC3)c(F)cc3c(=O)c(C(=O)O)cn1c23 [Levofloxacin]
MIC (μg/ml) with MBX2319 at concn (μM) of: 3.13 ([1]; MBX2319 3.13 μM): 0.016 µg/mL
MIC (μg/ml) with MBX2319 at concn (μM) of: 6.25 ([1]; MBX2319 6.25 μM): 0.016 µg/mL
MIC (μg/ml) with MBX2319 at concn (μM) of: 25 ([1]; MBX2319 25 μM): 0.016 µg/mL
MIC (μg/ml) with MBX2319 at concn (μM) of: 50 ([1]; MBX2319 50 μM): 0.016 µg/mL
MIC (μg/ml) with MBX2319 at concn (μM) of: 12.5 ([1]; MBX2319 […]): 0.016 µg/mL
MIC [2, 14]: 0.016 µg/mL
MIC (μg/ml) with MBX2319 at concn (μM) of: 1.56 ([2]; ΔacrB, MBX2319 1.56 μM): 0.016 µg/mL
MIC (μg/ml) with MBX2319 at concn (μM) of: 3.13 ([2]; ΔacrB, MBX2319 3.13 μM): 0.016 µg/mL
MIC (μg/ml) with MBX2319 at concn (μM) of: 6.25 ([2]; ΔacrB, MBX2319 6.25 μM): 0.016 µg/mL
MIC (μg/ml) with MBX2319 at concn (μM) of: 25 ([2]; ΔacrB, MBX2319 25 μM): 0.016 µg/mL
MIC (μg/ml) with MBX2319 at concn (μM) of: 50 ([2]; ΔacrB, MBX2319 50 μM): 0.016 µg/mL
MIC (μg/ml) with MBX2319 at concn (μM) of: 12.5 ([2]; ΔacrB, MBX2319 […]): 0.016 µg/mL
MIC [3, 14]: 0.063 µg/mL
MIC (μg/ml) with MBX2319 at concn (μM) of: 6.25 ([3]; ΔacrF, MBX2319 6.25 μM): 0.016 µg/mL
MIC (μg/ml) with MBX2319 at concn (μM) of: 25 ([3]; ΔacrF, MBX2319 25 μM): 0.016 µg/mL
MIC (μg/ml) with MBX2319 at concn (μM) of: 50 ([3]; ΔacrF, MBX2319 50 μM): 0.016 µg/mL
MIC (μg/ml) with MBX2319 at concn (μM) of: 12.5 ([3]; ΔacrF, MBX2319 […]): 0.016 µg/mL
MIC [4, 14]: 0.016 µg/mL
MIC (μg/ml) with MBX2319 at concn (μM) of: 1.56 ([4]; ΔtolC, MBX2319 1.56 μM): 0.016 µg/mL
MIC (μg/ml) with MBX2319 at concn (μM) of: 3.13 ([4]; ΔtolC, MBX2319 3.13 μM): 0.016 µg/mL
MIC (μg/ml) ± EPI: MBX2319 ([5]; + 25 μM MBX2319): 1 µg/mL
MIC (μg/ml) ± EPI: PAβN ([5]; + 25 μM PAβN): 0.5 µg/mL
MIC ([5]; Pseudomonas aeruginosa, ATCC27853, no EPI, read-out: MIC (μg/ml) ± EPI: None): 1 µg/mL
MICs (μg/ml) ± EPIs: MBX2319 [6]: 0.016 µg/mL
MIC (μg/ml) ± EPI: MBX2319 ([7]; + 25 μM MBX2319): 11.3 µg/mL
MIC (μg/ml) ± EPI: PAβN ([7]; + 25 μM PAβN): 32 µg/mL
MIC ([7]; Escherichia coli, no EPI, read-out: MIC (μg/ml) ± EPI: None): 64 µg/mL
MIC (μg/ml) ± EPI: MBX2319 ([8]; + 25 μM MBX2319): 0.149 µg/mL
MIC (μg/ml) ± EPI: PAβN ([8]; + 25 μM PAβN): 0.5 µg/mL
MIC ([8]; ATCC700603, no EPI, read-out: MIC (μg/ml) ± EPI: None): 0.71 µg/mL
MIC (μg/ml) ± EPI: MBX2319 ([9]; + 25 μM MBX2319): 0.016 µg/mL
MIC (μg/ml) ± EPI: PAβN ([9]; + 25 μM PAβN): 0.044 µg/mL
MIC ([9]; ATCC14028, no EPI, read-out: MIC (μg/ml) ± EPI: None): 0.062 µg/mL
MIC (μg/ml) ± EPI: MBX2319 ([10]; Shigella flexneri ATCC 12022, + 25 μM MBX2319): 0.016 µg/mL
MIC (μg/ml) ± EPI: PAβN ([10]; Shigella flexneri ATCC 12022, + 25 μM PAβN): 0.031 µg/mL
MIC ([10]; Shigella flexneri, ATCC12022, read-out: MIC (μg/ml) ± EPI: None): 0.063 µg/mL
MIC (μg/ml) ± EPI: MBX2319 ([11]; + 25 μM MBX2319): 0.044 µg/mL
MIC (μg/ml) ± EPI: PAβN ([11]; + 25 μM PAβN): 0.063 µg/mL
MIC ([11]; Klebsiella aerogenes, ATCC13048, no EPI, read-out: MIC (μg/ml) ± EPI: None): 0.177 µg/mL
MIC (μg/ml) ± EPI: MBX2319 ([12]; + 25 μM MBX2319): 0.013 µg/mL
MIC (μg/ml) ± EPI: PAβN ([12]; + 25 μM PAβN): 0.022 µg/mL
MIC [13]: 0.06 µg/mL (≈ 0.166 µM)
